Key:
[1] = target: Tyrosine-protein kinase CSK (Homo sapiens) (UniProt P41240); assay: Inhibition of CSK (unknown origin) assessed as residual activity at 1000 nM by KINOMEscan analysis relative to control
[2] = target: T1, Discoidin domain-containing receptor 2 (Homo sapiens) (UniProt Q16832); assay: Inhibition of DDR2 (unknown origin) assessed as residual activity at 1000 nM by KINOMEscan analysis relative to control
T1 sequence (whole entry): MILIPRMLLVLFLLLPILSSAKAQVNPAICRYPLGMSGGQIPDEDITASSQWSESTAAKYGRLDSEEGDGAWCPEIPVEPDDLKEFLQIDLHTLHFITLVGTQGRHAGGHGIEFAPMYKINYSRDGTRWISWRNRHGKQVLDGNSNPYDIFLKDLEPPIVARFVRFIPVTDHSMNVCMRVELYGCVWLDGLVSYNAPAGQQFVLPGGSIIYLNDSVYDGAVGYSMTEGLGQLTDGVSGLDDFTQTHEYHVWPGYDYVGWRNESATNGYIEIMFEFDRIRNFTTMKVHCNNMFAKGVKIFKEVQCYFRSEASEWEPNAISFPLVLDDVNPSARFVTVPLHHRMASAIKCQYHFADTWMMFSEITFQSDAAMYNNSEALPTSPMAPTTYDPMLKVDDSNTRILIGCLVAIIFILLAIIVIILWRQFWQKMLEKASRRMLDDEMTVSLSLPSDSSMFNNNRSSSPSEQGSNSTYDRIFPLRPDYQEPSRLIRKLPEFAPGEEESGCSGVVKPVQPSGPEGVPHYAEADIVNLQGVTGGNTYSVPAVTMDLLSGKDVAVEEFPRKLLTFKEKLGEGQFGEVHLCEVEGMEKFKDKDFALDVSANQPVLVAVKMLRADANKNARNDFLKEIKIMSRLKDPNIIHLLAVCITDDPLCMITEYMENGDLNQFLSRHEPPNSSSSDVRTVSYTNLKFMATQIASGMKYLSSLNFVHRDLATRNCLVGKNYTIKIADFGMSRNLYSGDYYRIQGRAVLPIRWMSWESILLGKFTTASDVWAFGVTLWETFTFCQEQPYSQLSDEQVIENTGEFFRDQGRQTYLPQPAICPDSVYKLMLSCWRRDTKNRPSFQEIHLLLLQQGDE

[3] = test system: Epidermal growth factor receptor (Homo sapiens), P00533 [UNDEFINED MUTATION]; assay: Inhibition of EGFR E746-A750del mutant (unknown origin) assessed as residual activity at 1000 nM by KINOMEscan analysis relative to control
Sequence of Epidermal growth factor receptor (Homo sapiens), P00533 [UNDEFINED MUTATION] (P00533 whole entry, looked up, stated change not applied): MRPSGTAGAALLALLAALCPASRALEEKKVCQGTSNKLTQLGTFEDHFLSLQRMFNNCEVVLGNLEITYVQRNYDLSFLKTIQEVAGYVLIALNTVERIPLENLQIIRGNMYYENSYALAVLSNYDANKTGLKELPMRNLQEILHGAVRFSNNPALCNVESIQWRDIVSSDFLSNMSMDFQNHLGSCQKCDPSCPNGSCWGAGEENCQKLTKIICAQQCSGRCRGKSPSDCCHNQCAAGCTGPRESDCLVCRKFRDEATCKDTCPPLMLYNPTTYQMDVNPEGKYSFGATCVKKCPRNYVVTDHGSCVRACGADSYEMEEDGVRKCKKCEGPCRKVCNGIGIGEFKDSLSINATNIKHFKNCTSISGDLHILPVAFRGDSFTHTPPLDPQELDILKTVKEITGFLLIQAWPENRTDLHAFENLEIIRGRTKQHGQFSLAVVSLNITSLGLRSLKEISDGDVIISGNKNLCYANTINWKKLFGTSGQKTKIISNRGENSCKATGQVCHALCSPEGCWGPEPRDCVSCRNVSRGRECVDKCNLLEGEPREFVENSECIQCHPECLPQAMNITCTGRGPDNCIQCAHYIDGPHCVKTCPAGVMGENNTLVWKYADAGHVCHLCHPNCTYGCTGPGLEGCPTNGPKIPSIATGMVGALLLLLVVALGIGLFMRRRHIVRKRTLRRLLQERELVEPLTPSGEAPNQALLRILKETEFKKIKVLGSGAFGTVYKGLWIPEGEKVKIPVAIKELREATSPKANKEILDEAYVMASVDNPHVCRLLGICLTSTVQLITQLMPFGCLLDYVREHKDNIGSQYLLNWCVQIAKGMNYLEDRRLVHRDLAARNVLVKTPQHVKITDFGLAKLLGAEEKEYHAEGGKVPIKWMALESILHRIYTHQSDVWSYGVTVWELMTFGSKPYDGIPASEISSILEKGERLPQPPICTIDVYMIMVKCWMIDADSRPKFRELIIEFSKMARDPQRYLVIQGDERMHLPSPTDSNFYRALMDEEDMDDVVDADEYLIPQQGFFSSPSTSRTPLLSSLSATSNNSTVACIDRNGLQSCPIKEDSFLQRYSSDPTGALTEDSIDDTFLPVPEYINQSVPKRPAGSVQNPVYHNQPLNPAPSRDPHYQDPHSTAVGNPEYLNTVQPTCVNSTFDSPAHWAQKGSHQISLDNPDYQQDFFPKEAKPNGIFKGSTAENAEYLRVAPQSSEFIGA

[4] = target: T2, Receptor-interacting serine/threonine-protein kinase 4 (Homo sapiens) (UniProt P57078); assay: Inhibition of RIPK4 (unknown origin) assessed as residual activity at 1000 nM by KINOMEscan analysis relative to control
T2 sequence (whole entry): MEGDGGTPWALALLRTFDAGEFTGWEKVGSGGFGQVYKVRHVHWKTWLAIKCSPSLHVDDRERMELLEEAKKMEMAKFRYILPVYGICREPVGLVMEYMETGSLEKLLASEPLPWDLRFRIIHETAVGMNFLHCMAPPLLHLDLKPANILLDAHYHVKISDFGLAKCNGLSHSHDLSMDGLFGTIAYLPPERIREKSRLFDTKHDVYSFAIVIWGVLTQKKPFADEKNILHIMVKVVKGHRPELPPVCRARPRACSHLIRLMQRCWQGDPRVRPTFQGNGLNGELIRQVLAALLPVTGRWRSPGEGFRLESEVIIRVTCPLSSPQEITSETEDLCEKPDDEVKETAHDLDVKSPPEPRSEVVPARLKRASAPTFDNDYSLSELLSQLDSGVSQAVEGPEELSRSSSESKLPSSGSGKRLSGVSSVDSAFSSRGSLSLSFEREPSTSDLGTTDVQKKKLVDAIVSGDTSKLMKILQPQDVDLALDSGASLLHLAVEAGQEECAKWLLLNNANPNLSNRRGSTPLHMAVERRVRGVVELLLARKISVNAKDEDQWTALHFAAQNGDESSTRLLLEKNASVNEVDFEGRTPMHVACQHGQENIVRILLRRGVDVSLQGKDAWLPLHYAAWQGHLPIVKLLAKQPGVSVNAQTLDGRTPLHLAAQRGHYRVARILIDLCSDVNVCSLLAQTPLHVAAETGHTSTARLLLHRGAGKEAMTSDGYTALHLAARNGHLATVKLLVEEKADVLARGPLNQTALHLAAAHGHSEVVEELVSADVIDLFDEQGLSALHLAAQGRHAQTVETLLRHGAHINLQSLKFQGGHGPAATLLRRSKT

[5] = target: Dual specificity tyrosine-phosphorylation-regulated kinase 1A (Homo sapiens) (UniProt Q13627); assay: Inhibition of DYRK1A (unknown origin) assessed as residual activity at 1000 nM by KINOMEscan analysis relative to control
[6] = test system: Mast/stem cell growth factor receptor Kit (Homo sapiens), P10721 [D816H]; assay: Inhibition of KIT D816H mutant (unknown origin) assessed as residual activity at 1000 nM by KINOMEscan analysis relative to control
Sequence of Mast/stem cell growth factor receptor Kit (Homo sapiens), P10721 [D816H] (P10721 whole entry D816H): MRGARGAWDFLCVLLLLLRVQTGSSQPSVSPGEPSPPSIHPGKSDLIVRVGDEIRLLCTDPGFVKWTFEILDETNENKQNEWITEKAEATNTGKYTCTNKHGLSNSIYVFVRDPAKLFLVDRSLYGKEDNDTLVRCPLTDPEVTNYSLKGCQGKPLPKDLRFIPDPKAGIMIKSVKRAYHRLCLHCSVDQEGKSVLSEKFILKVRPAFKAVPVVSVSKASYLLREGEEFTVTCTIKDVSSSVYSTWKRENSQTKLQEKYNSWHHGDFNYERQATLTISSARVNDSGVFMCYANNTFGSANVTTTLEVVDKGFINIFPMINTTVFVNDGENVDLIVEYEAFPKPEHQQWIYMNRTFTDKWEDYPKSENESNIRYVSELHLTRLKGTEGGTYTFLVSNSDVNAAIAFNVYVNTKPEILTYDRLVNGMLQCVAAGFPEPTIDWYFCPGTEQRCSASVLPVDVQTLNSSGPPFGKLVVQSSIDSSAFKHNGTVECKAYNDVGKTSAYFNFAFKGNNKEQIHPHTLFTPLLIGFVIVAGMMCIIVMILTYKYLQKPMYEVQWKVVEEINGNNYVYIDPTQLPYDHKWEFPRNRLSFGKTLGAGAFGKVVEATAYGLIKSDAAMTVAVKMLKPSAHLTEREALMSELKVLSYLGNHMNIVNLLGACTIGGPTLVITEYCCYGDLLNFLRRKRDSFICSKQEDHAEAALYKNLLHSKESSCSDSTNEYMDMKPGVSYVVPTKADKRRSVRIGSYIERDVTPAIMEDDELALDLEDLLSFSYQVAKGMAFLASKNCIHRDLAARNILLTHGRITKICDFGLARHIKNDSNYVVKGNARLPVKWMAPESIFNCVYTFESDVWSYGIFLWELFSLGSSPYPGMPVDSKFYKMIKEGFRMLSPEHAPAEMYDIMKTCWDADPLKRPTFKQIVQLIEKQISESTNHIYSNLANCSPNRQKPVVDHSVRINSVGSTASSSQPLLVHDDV

[7] = target: Glycogen synthase kinase-3 alpha (Homo sapiens) (UniProt P49840); assay: Inhibition of GSK3A (unknown origin) assessed as residual activity at 1000 nM by KINOMEscan analysis relative to control
Sequence of Glycogen synthase kinase-3 alpha (Homo sapiens) (P49840 2-483 limits assumed): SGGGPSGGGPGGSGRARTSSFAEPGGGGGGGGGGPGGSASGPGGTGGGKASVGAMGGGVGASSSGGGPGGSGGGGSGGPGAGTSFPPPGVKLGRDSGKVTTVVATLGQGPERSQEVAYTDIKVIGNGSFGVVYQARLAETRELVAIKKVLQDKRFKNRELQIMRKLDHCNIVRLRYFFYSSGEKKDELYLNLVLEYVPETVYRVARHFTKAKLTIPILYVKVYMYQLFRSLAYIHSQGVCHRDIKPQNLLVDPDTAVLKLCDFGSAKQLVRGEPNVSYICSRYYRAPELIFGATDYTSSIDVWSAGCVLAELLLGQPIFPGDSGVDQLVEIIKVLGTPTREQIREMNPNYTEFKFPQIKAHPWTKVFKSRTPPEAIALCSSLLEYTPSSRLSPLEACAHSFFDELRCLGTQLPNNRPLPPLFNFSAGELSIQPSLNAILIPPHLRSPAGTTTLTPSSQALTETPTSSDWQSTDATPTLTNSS

[8] = test system: Receptor-type tyrosine-protein kinase FLT3 (Homo sapiens), P36888 [D835Y]; assay: Inhibition of FLT3 D835Y mutant (unknown origin) assessed as residual activity at 1000 nM by KINOMEscan analysis relative to control
[9] = target: Tyrosine-protein kinase Srms (Homo sapiens) (UniProt Q9H3Y6); assay: Inhibition of SRMS (unknown origin) assessed as residual activity at 1000 nM by KINOMEscan analysis relative to control
Sequence of Tyrosine-protein kinase Srms (Homo sapiens) (Q9H3Y6 whole entry): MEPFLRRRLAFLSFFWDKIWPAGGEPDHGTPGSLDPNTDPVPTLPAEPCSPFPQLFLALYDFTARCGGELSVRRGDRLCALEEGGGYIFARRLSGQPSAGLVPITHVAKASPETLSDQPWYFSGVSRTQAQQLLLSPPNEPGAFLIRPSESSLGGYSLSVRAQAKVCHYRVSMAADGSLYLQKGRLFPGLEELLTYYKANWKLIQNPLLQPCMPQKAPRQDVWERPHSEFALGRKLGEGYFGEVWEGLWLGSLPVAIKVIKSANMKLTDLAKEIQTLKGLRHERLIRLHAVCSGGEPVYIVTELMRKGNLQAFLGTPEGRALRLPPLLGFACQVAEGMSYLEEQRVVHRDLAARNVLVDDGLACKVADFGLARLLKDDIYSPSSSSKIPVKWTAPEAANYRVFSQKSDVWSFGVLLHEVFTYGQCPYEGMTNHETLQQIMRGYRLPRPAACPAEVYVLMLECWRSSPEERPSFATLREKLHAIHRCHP

[10] = test system: Tyrosine-protein kinase ABL1 (Homo sapiens), P00519 [F317I]; assay: Inhibition of nonphosphorylated ABL1 F317I mutant (unknown origin) assessed as residual activity at 1000 nM by KINOMEscan analysis relative to control
Sequence of Tyrosine-protein kinase ABL1 (Homo sapiens), P00519 [F317I] (P00519 whole entry F317I): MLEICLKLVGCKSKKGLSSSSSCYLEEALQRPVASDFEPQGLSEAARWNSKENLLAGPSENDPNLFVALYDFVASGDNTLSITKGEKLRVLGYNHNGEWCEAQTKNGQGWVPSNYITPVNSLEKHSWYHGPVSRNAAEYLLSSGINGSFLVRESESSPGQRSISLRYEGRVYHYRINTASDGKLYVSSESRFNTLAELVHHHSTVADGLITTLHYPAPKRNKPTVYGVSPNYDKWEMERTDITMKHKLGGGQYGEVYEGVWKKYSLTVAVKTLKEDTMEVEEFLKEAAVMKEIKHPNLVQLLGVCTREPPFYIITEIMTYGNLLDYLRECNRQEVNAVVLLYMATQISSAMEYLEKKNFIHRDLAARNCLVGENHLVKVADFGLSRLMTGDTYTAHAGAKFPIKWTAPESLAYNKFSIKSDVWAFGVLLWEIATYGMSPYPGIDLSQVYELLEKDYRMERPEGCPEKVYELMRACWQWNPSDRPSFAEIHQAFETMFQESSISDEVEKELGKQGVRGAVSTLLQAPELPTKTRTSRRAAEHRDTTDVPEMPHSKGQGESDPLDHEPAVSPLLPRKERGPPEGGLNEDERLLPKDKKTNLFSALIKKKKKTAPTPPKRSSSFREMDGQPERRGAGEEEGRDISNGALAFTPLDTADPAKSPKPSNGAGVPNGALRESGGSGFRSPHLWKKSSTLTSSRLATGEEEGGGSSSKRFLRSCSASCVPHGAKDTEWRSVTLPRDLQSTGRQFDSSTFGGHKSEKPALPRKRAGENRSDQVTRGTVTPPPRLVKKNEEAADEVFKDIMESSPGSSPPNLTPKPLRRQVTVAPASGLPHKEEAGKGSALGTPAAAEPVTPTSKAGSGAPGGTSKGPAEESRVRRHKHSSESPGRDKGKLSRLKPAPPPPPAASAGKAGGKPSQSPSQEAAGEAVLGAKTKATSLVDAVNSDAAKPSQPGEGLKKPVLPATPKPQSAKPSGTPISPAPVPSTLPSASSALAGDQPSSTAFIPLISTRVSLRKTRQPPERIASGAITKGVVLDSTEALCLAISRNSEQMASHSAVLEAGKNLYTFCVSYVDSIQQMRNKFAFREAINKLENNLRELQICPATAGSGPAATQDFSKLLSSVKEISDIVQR

[11] = target: T3, Serine/threonine-protein kinase Sgk1 (Homo sapiens) (UniProt O00141); assay: Inhibition of SGK (unknown origin) assessed as residual activity at 1000 nM by KINOMEscan analysis relative to control
T3 sequence (whole entry): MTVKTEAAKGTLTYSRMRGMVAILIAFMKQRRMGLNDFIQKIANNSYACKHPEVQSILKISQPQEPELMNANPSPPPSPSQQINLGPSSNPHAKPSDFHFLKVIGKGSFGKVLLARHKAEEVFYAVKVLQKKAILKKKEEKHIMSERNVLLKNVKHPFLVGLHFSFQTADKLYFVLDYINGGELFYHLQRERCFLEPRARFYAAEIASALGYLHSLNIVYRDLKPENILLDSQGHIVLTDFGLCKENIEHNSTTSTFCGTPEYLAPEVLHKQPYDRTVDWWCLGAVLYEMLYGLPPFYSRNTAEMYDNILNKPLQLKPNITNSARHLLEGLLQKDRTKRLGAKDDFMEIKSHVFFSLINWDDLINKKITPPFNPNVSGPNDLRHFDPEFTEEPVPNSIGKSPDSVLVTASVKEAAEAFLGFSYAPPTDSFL

Sequence of Tyrosine-protein kinase CSK (Homo sapiens) (P41240 2-450 limits assumed): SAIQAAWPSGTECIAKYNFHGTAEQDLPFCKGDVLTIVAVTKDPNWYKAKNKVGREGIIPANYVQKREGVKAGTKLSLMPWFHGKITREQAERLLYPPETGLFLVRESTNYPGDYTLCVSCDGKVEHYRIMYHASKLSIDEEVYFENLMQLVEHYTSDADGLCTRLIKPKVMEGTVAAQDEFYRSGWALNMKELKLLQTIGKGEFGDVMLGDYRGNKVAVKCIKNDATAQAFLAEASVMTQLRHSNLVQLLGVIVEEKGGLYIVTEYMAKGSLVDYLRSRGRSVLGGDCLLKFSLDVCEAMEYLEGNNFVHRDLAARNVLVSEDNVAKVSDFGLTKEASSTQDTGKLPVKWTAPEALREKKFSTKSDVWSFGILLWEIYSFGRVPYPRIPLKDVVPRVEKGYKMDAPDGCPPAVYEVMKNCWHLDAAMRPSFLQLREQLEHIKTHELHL

SMILES | Activity [1] [%] | Activity [2] [%] | Activity [3] [%] | Activity [4] [%] | Activity [5] [%] | Activity [6] [%] | Activity [7] [%] | Activity [8] [%] | Activity [9] [%] | Activity [10] [%] | Activity [11] [%]
COc1cc2nc(C)nc(N[C@H](C)c3cccc(-c4cn[nH]c4)c3)c2cc1OC | 93 | 97 | 100 | 70 | 86 | 88 | 95 | 89 | 87 | 84 | 74
COc1cc2ncnc(N[C@H](C)c3cccc4ccccc34)c2cc1OC | 87 | 67 | 5.9 | 93 | 83 | 97 | 70 | 96 | 83 | 86 | 11

Reference: ChEMBL document CHEMBL5678818, “Discovery of potent SOS1 inhibitors that block RAS activation via disruption of the RAS-SOS1 interaction” (Proc Natl Acad Sci U S A, 2019)
